One experiment concerns A549. Description: Antiproliferative activity against human A549 cells assessed as inhibition of cell growth after 48 hrs by MTT assay. In kind it is functional, cell-based. As to conditions: A549, 48 h.
The subject of experiment [1] is MCF7. Put plainly: Antiproliferative activity against ER positive human MCF7 cells assessed as inhibition of cell growth after 48 hrs by MTT assay. In kind it is functional, cell-based. As to conditions: MCF7, 48 h. (Formazan colour is commonly taken as a measure of viable cells.)
For a further experiment, the system named is HeLa. Put plainly: Antiproliferative activity against human HeLa cells assessed as inhibition of cell growth after 48 hrs by MTT assay. Format: functional, cell-based.
The next experiment deals with HT-29. Description: Antiproliferative activity against human HT-29 cells assessed as inhibition of cell growth after 48 hrs by MTT assay. In kind it is functional, cell-based. The settings on record: HT-29, 48 h.
Another experiment has as its system MDA-MB-231. Description: Antiproliferative activity against ER negative human MDA-MB-231 cells assessed as inhibition of cell growth after 48 hrs by MTT assay. Format: functional, cell-based. As to conditions: MDA-MB-231, 48 h.
The test system of a further experiment is MRC5. Put plainly: Antiproliferative activity against human MRC5 cells assessed as inhibition of cell growth after 48 hrs by MTT assay. In kind it is functional, cell-based. As to conditions: MRC5, 48 h.
Experiment [2] in a line: Antiproliferative activity against human PC3 cells assessed as inhibition of cell growth after 48 hrs by MTT assay. In kind it is functional, cell-based. The settings on record: PC-3, 48 h.
Experiment [3] deals with MCF7. Put plainly: Cell cycle arrest in human MCF7 cells assessed as cells accumulation at G2/M phase at IC50 concentration after 48 hrs by flow cytometry (Rvb =21.32 %). In kind it is functional.
In experiment [4] the test system is MCF7. Put plainly: Cell cycle arrest in human MCF7 cells assessed as cells accumulation at S phase at IC50 concentration after 48 hrs by flow cytometry (reference value: 29.30%). Format: functional. On the technique in general: Flow cytometry measures light scatter and fluorescence of single cells or particles in a stream.
Experiment [5] has as its system MCF7. Description: Cell cycle arrest in human MCF7 cells assessed as cells accumulation at G0/G1 phase at IC50 concentration after 48 hrs by flow cytometry (reference value: 47.55%). In kind it is functional.
The test system of experiment [6] is MCF7. Description: Cell cycle arrest in human MCF7 cells assessed as cells accumulation at subG1 phase at IC50 concentration after 48 hrs by flow cytometry (Rvb =1.83 %). In kind it is functional.
Experiment [7] concerns MCF7. Put plainly: Induction of apoptosis in human MCF7 cells assessed as apoptotic morphological changes at IC50 concentration after 48 hrs by light microscopy. Format: functional.

This note sets out measurements from ChEMBL document CHEMBL3400025, “Synthesis, structural analysis and antitumor activity of novel 17α-picolyl and 17(E)-picolinylidene A-modified androstane derivatives” (Bioorg Med Chem, 2015).

The structures appear in SMILES notation. A value given as a limit tells only on which side of the number the result lay.

One may read the IC50 as the concentration that inhibits the measured activity by half.

As to `C[C@]12CCC(=O)C=C1CC[C@@H]1[C@@H]2CC[C@]2(C)/C(=C/c3ccccn3)CC[C@@H]12`, the IC50 with A549, in the experiment with MCF7 [1], with HeLa, with HT-29, in the experiment on MDA-MB-231 and in the experiment on MRC5 was greater than 100 µM in each case.
In the case of `C[C@]12C/C(=C/O)C(=O)C=C1CC[C@@H]1[C@@H]2CC[C@@]2(C)[C@H]1CC[C@@]2(O)Cc1ccccn1`, the IC50 was greater than 100 µM in [2]; greater than 100 µM in the experiment on A549; 34.4 µM in the experiment on MCF7 [1]; greater than 100 µM in the experiment on HeLa; greater than 100 µM in the experiment on HT-29; 19 µM with MDA-MB-231. Besides, the IC50 with MRC5 is greater than 100 µM.
Turning to `C[C@]12CC[C@H](O)CC1=CC[C@@H]1[C@@H]2CC[C@@]2(C)[C@H]1CC[C@@]2(O)Cc1ccccn1`, the IC50 in [2] was 6.3 µM; in the experiment on A549, greater than 100 µM; with MCF7 [1], 96.1 µM; in the experiment with HeLa it was 75.2 µM; in the experiment on HT-29, 48.2 µM; in the experiment with MDA-MB-231 it was greater than 100 µM. Moreover, the IC50 in the experiment on MRC5 is greater than 100 µM.
Turning to `C[C@]1(CC#N)C(C#N)=CC[C@@H]2[C@@H]1CC[C@@]1(C)[C@H]2CC[C@@]1(O)Cc1ccccn1`, the IC50 is 31.5 µM in experiment [2]; greater than 100 µM with A549; 18.2 µM in the experiment with MCF7 [1]; greater than 100 µM in the experiment on HeLa; 71.8 µM with HT-29; 7.9 µM in the experiment on MDA-MB-231. Further, the IC50 in the experiment with MRC5 is greater than 100 µM. Moreover, the Activity with MCF7 [3] was 21.12%; in the experiment with MCF7 [4] it was 31.34%; in the experiment on MCF7 [5], 46.06%; in the experiment with MCF7 [6], 1.48%.
For `C[C@]12C/C(=N/O)C(=O)/C(=N\O)C1=CC[C@@H]1[C@@H]2CC[C@@]2(C)[C@H]1CC[C@@]2(O)Cc1ccccn1`, the IC50 in experiment [2] was 8.7 µM; in the experiment on A549 it was 10.3 µM; in the experiment on MCF7 [1], 40.1 µM; in the experiment on HeLa, 81.8 µM; in the experiment on HT-29, 56 µM; in the experiment on MDA-MB-231, 1.7 µM. Also, the IC50 with MRC5 is greater than 100 µM. Further, the Activity was 21.23% with MCF7 [3]; 29.03% with MCF7 [4]; 47.66% with MCF7 [5]; 12.2% in the experiment on MCF7 [7]; 2.08% in the experiment on MCF7 [6].
With `C[C@]12C/C(=C/O)C(=O)C=C1CC[C@@H]1[C@@H]2CC[C@]2(C)/C(=C/c3ccccn3)CC[C@@H]12`, the IC50 (in experiment [2]; in the experiment on A549; in the experiment on MCF7 [1]; in the experiment on HeLa; in the experiment on HT-29; in the experiment on MDA-MB-231) was greater than 100 µM throughout. Moreover, in the experiment on MRC5, the IC50 is greater than 100 µM.
Regarding `C[C@]12CCC(=O)C(O)=C1CC[C@@H]1[C@@H]2CC[C@]2(C)C(=O)CC[C@@H]12` [FORMESTANE], the IC50 in experiment [2] was 48.4 µM; in the experiment with A549, greater than 100 µM; in the experiment on MCF7 [1] it was 55.5 µM; with HT-29, greater than 100 µM; with MDA-MB-231, greater than 100 µM; with MRC5, greater than 100 µM. The Activity with MCF7 [3] is given as 24.54%; in the experiment with MCF7 [4] it was 19.48%; with MCF7 [5], 54.8%; with MCF7 [7], 11.5%; in the experiment with MCF7 [6], 1.18%.
For the compound `C[C@]12CCC(=O)C=C1CC[C@@H]1[C@@H]2CC[C@@]2(C)[C@H]1CC[C@@]2(O)Cc1ccccn1`, the IC50 in experiment [2] was greater than 100 µM; with A549, 57.5 µM; with MCF7 [1], greater than 100 µM; in the experiment on HeLa, 57.8 µM; in the experiment with HT-29 it was greater than 100 µM; in the experiment on MDA-MB-231, greater than 100 µM. Besides, in the experiment on MRC5, the IC50 is greater than 100 µM.
Turning to `COc1cccc2c1C(=O)c1c(O)c3c(c(O)c1C2=O)C[C@@](O)(C(=O)CO)C[C@@H]3O[C@H]1C[C@H](N)[C@H](O)[C@H](C)O1` [DOXORUBICIN], the IC50 in the experiment with A549 came to 0.32 µM; in the experiment on MCF7 [1], 0.12 µM; with HT-29 it was 7.86 µM; in the experiment on MDA-MB-231, 0.75 µM.
For the compound `C[C@]12CCNC(=O)C=C1CC[C@@H]1[C@@H]2CC[C@]2(C)/C(=C/c3ccccn3)CC[C@@H]12`, the IC50 in [2] is 60.1 µM; in the experiment on A549, 19.8 µM; in the experiment with MCF7 [1], 32.2 µM; with HeLa, greater than 100 µM; in the experiment with HT-29 it was greater than 100 µM; in the experiment on MDA-MB-231, 12.7 µM. Also, the IC50 in the experiment on MRC5 was greater than 100 µM.
As for `C[C@]12C/C(=N/O)C(=O)C=C1CC[C@@H]1[C@@H]2CC[C@@]2(C)[C@H]1CC[C@@]2(O)Cc1ccccn1`, the IC50 in experiment [2] is greater than 100 µM; with A549, greater than 100 µM; in the experiment on MCF7 [1], 51.3 µM; with HeLa, greater than 100 µM; in the experiment with HT-29 it was greater than 100 µM; with MDA-MB-231, greater than 100 µM. For the same compound, the IC50 in the experiment on MRC5 was greater than 100 µM.
For the compound `C[C@]12C/C(=N\O)C(=O)c3noc(c31)C[C@@H]1[C@@H]2CC[C@@]2(C)[C@H]1CC[C@@]2(O)Cc1ccccn1`, the IC50 was 6.6 µM in experiment [2]; greater than 100 µM in the experiment with A549; 25.3 µM in the experiment on MCF7 [1]; greater than 100 µM in the experiment on HeLa; greater than 100 µM in the experiment on HT-29; 50.4 µM with MDA-MB-231. Besides, the IC50 in the experiment with MRC5 is greater than 100 µM.
On to `C[C@]12CC[C@H](O)CC1=CC[C@@H]1[C@@H]2CC[C@]2(C)/C(=C/c3ccccn3)CC[C@@H]12`, for which the IC50 (in experiment [2]; with A549; in the experiment with MCF7 [1]; in the experiment on HeLa; in the experiment with HT-29; in the experiment with MDA-MB-231) was greater than 100 µM in each case. Besides, the IC50 in the experiment on MRC5 is greater than 100 µM.
